Like-named read-outs stand apart in the source and are kept apart here.
Legend:
[1] = tested on: influenza virus in MDCK cells; type: cell-based
[2] = tested on: Candida albicans ATCC 10231; assay: Time required for killing mold, octyl gallate and propyl gallate (FIG. 2); type: cell-based; conditions: concomitant use of octyl gallate and propyl gallate, FIG. 2
Excerpt: FIG. 2 is a graph showing shortening of the time required for killing mold by the concomitant use of octyl gallate and propyl gallate against Candida albicans ATCC 10231.

MRSA COL strain = assay: Time required for killing bacteria, octyl gallate and propyl gallate (FIG. 1); type: cell-based, Staphylococcus aureus; conditions: concomitant use of octyl gallate and propyl gallate
Excerpt: FIG. 1 is a graph showing shortening of the time required for killing bacteria by the concomitant use of octyl gallate and propyl gallate against MRSA COL strain.

[3] = tested on: gram-positive and gram-negative bacteria; assay: MIC (minimum growth inhibition concentration), 2-fold serial agar plate dilution on Mueller Hinton II Agar, with concomitant alkyl gallate and salt; conditions: for MIC: 24 h
fungi (mold) = assay: MIC of octyl gallate against fungi (mold) with trisodium citrate and propyl gallate; type: cell-based; conditions: for MIC: 24 h, read-out: Octyl gallate MIC, SDA (+0.9% trisodium citrate), 24 hr, triplicate
[4] = tested on: influenza virus A/Aichi (H3N2); assay: Virucidal activity against influenza virus A/Aichi (H3N2) (Table 16); conditions: for No of plaques: Table 16
clinical isolate MRSA = assay: Oxacillin MIC against MRSA with concomitant octyl gallate and short-chain alkyl gallate (β-lactam sensitivity, ILSMR effect); type: cell-based, Staphylococcus aureus
influenza virus B/T/1/05 = assay: Time course of virucidal activity at 37° C., infectivity by plaque assay in MDCK cells (FIGS. 6 to 12); type: cell-based; conditions: concomitant use of octyl gallate and propyl gallate, FIG. 6
Procedure: The experiments in FIGS. 7 to 12 were carried out at 37° C. The infectivity of viruses was determined using MDCK cells by the plaque assay method.
This virucidal activity of octyl gallate was reinforced by propyl gallate also against influenza virus A/Aichi (H3N2) in the same manner as above.

[5] = clinical isolate MRSA, Isoamyl gallate 6.25
[6] = clinical isolate MRSA, Isoamyl gallate 12.5
[7] = clinical isolate MRSA, Isoamyl gallate 25
[8] = clinical isolate MRSA, Propyl gallate 6.25
[9] = clinical isolate MRSA, Propyl gallate 12.5
[10] = clinical isolate MRSA, Propyl gallate 25
[11] = clinical isolate MRSA, short-chain alkyl gallate None

CCCCCCCCOC(=O)c1cc(O)c(O)c(O)c1 [octyl gallate]
growth inhibition of influenza virus in MDCK cells [1]: markedly reinforced | growth of influenza virus in MDCK cells [1]: inhibits the growth | time required for killing mold [2]: shortened to a large extent | time required for killing bacteria (MRSA COL strain): shortened to a large extent | MIC ([3]; read-out: Octyl gallate MIC, NaCl 4%, isoamyl gallate 100 μg/mL): 0.98 µg/mL | MIC ([3]; read-out: Recrystalized octyl gallate MIC, Dec. 24, 2007, MHA (+0.9% disodium hydrogen citrate), sodium ascorbate 0.5 mg/ml, propyl gallate 300 mg/L): > 100 µg/mL | change of MIC value of octyl gallate by isoamyl gallate ([3]; as the amount of NaCl added (2 to 4%) increases (Table 4)): markedly decreased | effect on bacteria of concomitant use with propyl gallate ([3]; propyl gallate 300 mg/L, except for three strains of bacteria): completely killed | MIC of octyl gallate lower than that of chlorhexidine gluconate, maximum ([3]; with isoamyl gallate at or below MIC and NaCl): ≤ 640 times | MIC (fungi (mold); phosphate buffer (1 mM), propyl gallate 0): 20 µg/mL | MIC (fungi (mold); propyl gallate 300 μg/mL): 10 µg/mL | MIC (fungi (mold); propyl gallate 1000 μg/mL): 10 µg/mL | antimicrobial activity against fungi (mold) (fungi (mold); […]): reinforced | No of plaques ([4]; octyl gallate 20 mg/L, J1816 60 mg/L, NaCitrate 0.90%): 0 | No of plaques ([4]; octyl gallate 20 mg/L, propyl gallate 300 mg/L, J1816 150 mg/L, NaCitrate 0.90%): 0 | No of plaques ([4]; octyl gallate 40 mg/L, J1816 20 mg/L, NaCitrate 0.90%): 0 | No of plaques ([4]; octyl gallate 40 mg/L, propyl gallate 300 mg/L, J1816 210 mg/L, NaCitrate 0.90%): 0 | No of plaques ([4]; octyl gallate 60 mg/L, J1816 180 mg/L, NaCitrate 0.90%): 0 | No of plaques ([4]; octyl gallate 60 mg/L, J1816 180 mg/L, NaCitrate not given): 0 | No of plaques ([4]; octyl gallate 60 mg/L, propyl gallate 300 mg/L, J1816 270 mg/L, NaCitrate 0.90%): 0 | No of plaques ([4]; octyl gallate 80 mg/L, J1816 240 mg/L, NaCitrate 0.90%): 0 | No of plaques ([4]; octyl gallate 80 mg/L, propyl gallate 300 mg/L, J1816 330 mg/L, NaCitrate 0.90%): 0 | No of plaques ([4]; octyl gallate 100 mg/L, J1816 300 mg/L, NaCitrate 0.90%): 0 | No of plaques ([4]; octyl gallate 100 mg/L, propyl gallate 300 mg/L, J1816 390 mg/L, NaCitrate 0.90%): 0 | virucidal activity of octyl gallate against influenza virus A/Aichi (H3N2) ([4]; with propyl gallate): reinforced | octyl gallate concentration with growth inhibitory effect in all the bacterial strains with only octyl gallate (clinical isolate MRSA; clinical isolate MRSA): 25 µg/mL | Concentration of octyl gallate for concomitant use necessary for obtaining oxacillin MIC not higher than 2 μg/mL, C50 (clinical isolate MRSA; [5]): >12.5 µg/mL | Concentration of octyl gallate for concomitant use necessary for obtaining oxacillin MIC not higher than 2 μg/mL, C100 (clinical isolate MRSA; [5]): >12.5 µg/mL | Concentration of octyl gallate for concomitant use necessary for obtaining oxacillin MIC not higher than 2 μg/mL, C50 (clinical isolate MRSA; [6]): >12.5 µg/mL | Concentration of octyl gallate for concomitant use necessary for obtaining oxacillin MIC not higher than 2 μg/mL, C100 (clinical isolate MRSA; [6]): >12.5 µg/mL | Concentration of octyl gallate for concomitant use necessary for obtaining oxacillin MIC not higher than 2 μg/mL, C50 (clinical isolate MRSA; [7]): 1.56 µg/mL | Concentration of octyl gallate for concomitant use necessary for obtaining oxacillin MIC not higher than 2 μg/mL, C100 (clinical isolate MRSA; [7]): 1.56 µg/mL | Concentration of octyl gallate for concomitant use necessary for obtaining oxacillin MIC not higher than 2 μg/mL, Range (clinical isolate MRSA; [7]): 1.56 µg/mL | Concentration of octyl gallate for concomitant use necessary for obtaining oxacillin MIC not higher than 2 μg/mL, C50 (clinical isolate MRSA; [8]): >12.5 µg/mL | Concentration of octyl gallate for concomitant use necessary for obtaining oxacillin MIC not higher than 2 μg/mL, C100 (clinical isolate MRSA; [8]): >12.5 µg/mL | Concentration of octyl gallate for concomitant use necessary for obtaining oxacillin MIC not higher than 2 μg/mL, C50 (clinical isolate MRSA; [9]): >12.5 µg/mL | Concentration of octyl gallate for concomitant use necessary for obtaining oxacillin MIC not higher than 2 μg/mL, C100 (clinical isolate MRSA; [9]): >12.5 µg/mL | Concentration of octyl gallate for concomitant use necessary for obtaining oxacillin MIC not higher than 2 μg/mL, Range (clinical isolate MRSA; [9]): 6.25 to 12.5 µg/mL | Concentration of octyl gallate for concomitant use necessary for obtaining oxacillin MIC not higher than 2 μg/mL, C50 (clinical isolate MRSA; [10]): 3.13 µg/mL | Concentration of octyl gallate for concomitant use necessary for obtaining oxacillin MIC not higher than 2 μg/mL, C100 (clinical isolate MRSA; [10]): 6.25 µg/mL | Concentration of octyl gallate for concomitant use necessary for obtaining oxacillin MIC not higher than 2 μg/mL, Range (clinical isolate MRSA; [10]): 1.56 to 6.25 µg/mL | Concentration of octyl gallate for concomitant use necessary for obtaining oxacillin MIC not higher than 2 μg/mL, C50 (clinical isolate MRSA; [11]): 25 µg/mL | Concentration of octyl gallate for concomitant use necessary for obtaining oxacillin MIC not higher than 2 μg/mL, C100 (clinical isolate MRSA; [11]): 25 µg/mL | Concentration of octyl gallate for concomitant use necessary for obtaining oxacillin MIC not higher than 2 μg/mL, Range (clinical isolate MRSA; [11]): 25 µg/mL | octyl gallate concentration at which a decrease of the MIC value of oxacillin to MRSA occurs (clinical isolate MRSA; in the coexistence of propyl gallate or isoamyl gallate): 1.56 µg/mL | Concentration of octyl gallate for concomitant use for oxacillin MIC of 2 μg/mL or lower, 100% of MRSA strains (C100) (clinical isolate MRSA; isoamyl gallate coexisting at 25 μg/mL): 1.56 µg/mL | Concentration of octyl gallate for concomitant use for oxacillin MIC of 2 μg/mL or lower, 100% of MRSA strains (C100) (clinical isolate MRSA; propyl gallate coexisting at 25 μg/mL): 6.25 µg/mL | octyl gallate concentration at which an ILSMR effect was confirmed (clinical isolate MRSA; several bacterial strains, oxacillin with octyl gallate): 12.5 µg/mL | time required for killing viruses (influenza virus B/T/1/05): shortened to a large extent

— patent publication US20100056627A1, “PHARMACEUTICAL COMPOSITIONS OF ALKYL GALLATES” (priority 2006, published 2010)
